The values that follow are results of earlier work, collected in patent publication US7939721B2, “Cropping systems for managing weeds” (Monsanto Technology LLC, priority 2006, dated 2011).

Read-outs that look alike come from different tables or passages of the source.

In the data set the test system is soybean plants transformed with dicamba monooxygenase (DMO)-encoding polynucleotide constructs. The following applies: cited from earlier work.

Turning to `COc1c(Cl)ccc(Cl)c1C(=O)O` [dicamba, 3,6-dichloro-o-anisic acid], the injury entry runs as follows: (18× application rate of 10,080 g/ha (9 lb/acre)) “less than 20%”; (approximately 2× rate of application of 1122 g/ha) “less than 2%”; (early pre-emergence application, 9× the labeled application rate (5,040 g/ha, 4.5 lb/acre)) “less than 10%”.
